Test results as given in patent US7439041B2 (Novartis Vaccines and Diagnostics, Inc., priority 2003, dated 2008).

Columns and labels:
PrP^Sc [1] = molecular target: T1, PrP^Sc (Mus musculus, UniProt P04925); format: binding; parameters: key to Western Blot: −: Visually evaluated relative signal intensity; +/−: Visually evaluated relative signal intensity; +: Visually evaluated relative signal intensity; ++: Visually evaluated relative signal intensity; +++: Visually evaluated relative signal intensity; ++++: Visually evaluated relative signal intensity; +++++: Visually evaluated relative signal intensity
PrP^Sc [2] = molecular target: T1, PrP^Sc; format: binding
Target sequence in this assay (P04925 23-230 limits assumed): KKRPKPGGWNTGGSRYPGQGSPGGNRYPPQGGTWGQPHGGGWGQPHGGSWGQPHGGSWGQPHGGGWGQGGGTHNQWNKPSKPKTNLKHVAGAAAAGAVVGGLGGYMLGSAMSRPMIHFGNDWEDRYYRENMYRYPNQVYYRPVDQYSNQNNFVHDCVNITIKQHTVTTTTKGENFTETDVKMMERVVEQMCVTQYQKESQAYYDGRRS

Substance	Western Blot (PrP^Sc [1])	also measured
(GGG)KARPKPGG [SEQ ID NO: 105]	+	
(GGG)KKRPAPGG [SEQ ID NO: 107]	+	
PHGGGWGQPHGGSWGQ [SEQ ID NO: 70]	−	
(KKK)AGAAAAGAVVGGLGGYMLGSAM [SEQ ID NO: 57]	+	
GGWGQGGGTHNQWNKPSKPKTN [SEQ ID NO: 53]	+	
(GGG)AKRPKPGG [SEQ ID NO: 104]	+	
(GGG)KPSKPK [SEQ ID NO: 80]	−	
(GGG)KKRAKPGG [SEQ ID NO: 96]	+ and ++	
(GGG)KKAPKPGG [SEQ ID NO: 106]	+	
(GGG)QWNKASKPKTN [SEQ ID NO: 99]	+/−	
DDDAGAAAAGAVVGGLGGYMLGSAMDDD [SEQ ID NO: 86]	−	
(GGG)KKAPKAGG [SEQ ID NO: 108]	+	
KKKAGAAAAGAVVGGLGGYMLGSAMKKK [SEQ ID NO: 84]	+	
KKKAGAAAAGAVVGGLGGYMLGSAMDDD [SEQ ID NO: 82]	−	
(GGGG)C(GG)GGWGQGGGTHNQWNKPSKPKTNLKHV(GGGG)C [SEQ ID NO: 35]	+	
PHGGGWGQHGGSWGQPHGGSWGQ [SEQ ID NO: 69]	−	
(KKK)AGAAAAGAVVGGLGG [SEQ ID NO: 65]	++	
(GG)C(GGG)RPMIHFGNDWEDRYYRENMYR(GGG)C [SEQ ID NO: 46]	+	
(GGG)KKRPKPGGGQWNKPSKPKTN [SEQ ID NO: 81]	+	
QWNKPSKPKTNLKHV(GGG) [SEQ ID NO: 77]	++	
DDDAGAAAAGAVVGGLGGYMLGSAM [SEQ ID NO: 83]	−	
QWNKPSKPKTN(GGG)QWNKPSKPKTN [SEQ ID NO: 51]	+++	ELISA A405nm (PrP^Sc [2]): .923
(GGG)QWNKPSAPKTN [SEQ ID NO: 93]	− and +	
(GGG)QWNKPSKPKTN [SEQ ID NO: 14]	+++	
(GGG)QANKPSKPKTN [SEQ ID NO: 89]	+ and +++	

Substance	Western Blot (PrP^Sc [1])	also measured
DKDKGGVGALAGAAVAAGGDKDK [SEQ ID NO: 88]	−	
(GGG)GPKRKGPK [SEQ ID NO: 73]	+	
(GGG)KKRPKPGG [SEQ ID NO: 68]	+++	binding to PrPSc in infected mouse brain homogenate samples (Western blot, FIG. 4) (PrP^Sc [1]): strong binding
(GGGG)GGWGQGGGTHNQWNKPSKPKTNLKHV [SEQ ID NO: 36]	+	
(GGG)QWNKASKAKTN [SEQ ID NO: 95]	−	
(GGG)KKRPKPGGGKKRPKPGG [SEQ ID NO: 72]	+	
C(GG)GGWGQGGGTHNQWNKPSKPKTNLKHV(GGGG)C [SEQ ID NO: 40]	+	
QWNKPSKPKTN(GGG) [SEQ ID NO: 50]	+	
(GGG)QWNKPSKPATN [SEQ ID NO: 94]	− and +	
PHGGGWGQ [SEQ ID NO: 71]	−	
(GGG)WNKPSKPKT [SEQ ID NO: 75]	−	
(GGG)NKPSKPK [SEQ ID NO: 79]	−	
(GGG)QWNKASKPKTN [SEQ ID NO: 90]	−	
(GGG)QWNAPSKPKTN [SEQ ID NO: 92]	− and +	
(GGG)KKKKKKKK (GGGKKKKKKKK) [SEQ ID NO: 85]	+^3	
GGTHNQWNKPSKPKTN [SEQ ID NO: 54]	+	
RPMIHFGNDWEDRYYRENMYR(GGG) [SEQ ID NO: 44]	−	
(GGG)KKRPKPGGWNTGGSRYPGQGS [SEQ ID NO: 66]	+	
(GGG)NNKQSPWPTKK [SEQ ID NO: 87]	−	
(GGG)KKRAKAGG [SEQ ID NO: 98]	+	
(GGG)QWNKPSKAKTN [SEQ ID NO: 91]	− and +	
(GGG)RPMIHFGNDWEDRYYRENMYR(GG)C [SEQ ID NO: 76]	−	
GGWGQGGGTHNQWNKPSKPKTNLKHV(GGGG) [SEQ ID NO: 37]	+	
(GGG)KKRPKPGGWNTGG [SEQ ID NO: 67]	++	
(GGG)KKRPKAGG [SEQ ID NO: 97]	+ and ++	
